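Following 48 hours of exposure in 96-well plates, responses at five concentrations were used to interpolate endpoints linearly. TGI denotes the concentration required for complete inhibition of growth.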
Legend:
Assay in all cases: NCI-60 cell line screen, 48 h
A549 NSCLC = system: A549 NSCLC
U251 CNS = system: U251 CNS
SK-OV-3 ovarian = system: SK-OV-3 ovarian
IGROV1 ovarian = system: IGROV1 ovarian
OVCAR-3 ovarian = system: OVCAR-3 ovarian
SF-539 CNS = system: SF-539 CNS
SK-MEL-2 melanoma = system: SK-MEL-2 melanoma
COLO 205 colon = system: COLO 205 colon
NCI/ADR-RES ovarian = system: NCI/ADR-RES ovarian
SF-268 CNS = system: SF-268 CNS
HT29 colon = system: HT29 colon
HCT-116 colon = system: HCT-116 colon
SN12C renal = system: SN12C renal
M14 melanoma = system: M14 melanoma
786-0 renal = system: 786-0 renal
MALME-3M melanoma = system: MALME-3M melanoma
NCI-H226 lung = system: NCI-H226 lung
T-47D breast = system: T-47D breast
MCF7 breast = system: MCF7 breast
HOP-62 NSCLC = system: HOP-62 NSCLC
NCI-H522 lung = system: NCI-H522 lung
SNB-19 CNS = system: SNB-19 CNS
UACC-257 melanoma = system: UACC-257 melanoma
CAKI-1 renal = system: CAKI-1 renal
SW-620 colon = system: SW-620 colon
SK-MEL-28 melanoma = system: SK-MEL-28 melanoma
UO-31 renal = system: UO-31 renal
BT-549 breast = system: BT-549 breast
HOP-92 NSCLC = system: HOP-92 NSCLC
NCI-H23 lung = system: NCI-H23 lung
SF-295 CNS = system: SF-295 CNS
MDA-N = system: MDA-N
SK-MEL-5 melanoma = system: SK-MEL-5 melanoma
A498 renal = system: A498 renal
UACC-62 melanoma = system: UACC-62 melanoma
HS 578T breast = system: HS 578T breast
ACHN renal = system: ACHN renal
CCRF-CEM leukemia = system: CCRF-CEM leukemia
LOX IMVI melanoma = system: LOX IMVI melanoma
SNB-75 CNS = system: SNB-75 CNS
MOLT-4 leukemia = system: MOLT-4 leukemia
PC-3 prostate = system: PC-3 prostate
RXF 393 renal = system: RXF 393 renal
OVCAR-4 ovarian = system: OVCAR-4 ovarian
HL-60(TB) leukemia = system: HL-60(TB) leukemia
DU-145 prostate = system: DU-145 prostate
HCC-2998 colon = system: HCC-2998 colon
EKVX NSCLC = system: EKVX NSCLC
NCI-H460 lung = system: NCI-H460 lung
RPMI-8226 leukemia = system: RPMI-8226 leukemia
HCT-15 colon = system: HCT-15 colon
SR leukemia = system: SR leukemia
OVCAR-8 ovarian = system: OVCAR-8 ovarian
K-562 leukemia = system: K-562 leukemia
MDA-MB-231 breast = system: MDA-MB-231 breast
TK-10 renal = system: TK-10 renal
OVCAR-5 ovarian = system: OVCAR-5 ovarian
MDA-MB-435 = system: MDA-MB-435
KM12 colon = system: KM12 colon

SMILES: Cc1cc(-c2nc3ccccc3s2)ccc1N
- TGI (A549 NSCLC): > 100 µM
- TGI (U251 CNS): > 88.5 µM
- TGI (SK-OV-3 ovarian): > 100 µM
- TGI (IGROV1 ovarian): > 100 µM
- TGI (OVCAR-3 ovarian): > 86.6 µM
- TGI (SF-539 CNS): > 91.6 µM
- TGI (SK-MEL-2 melanoma): > 84 µM
- TGI (COLO 205 colon): > 76.9 µM
- TGI (NCI/ADR-RES ovarian): > 87.6 µM
- TGI (SF-268 CNS): > 83.8 µM
- TGI (HT29 colon): > 87.3 µM
- TGI (HCT-116 colon): > 78.7 µM
- TGI (SN12C renal): > 77.9 µM
- TGI (M14 melanoma): > 73.5 µM
- TGI (786-0 renal): > 79.6 µM
- TGI (MALME-3M melanoma): > 81.5 µM
- TGI (NCI-H226 lung): > 92 µM
- TGI (T-47D breast): > 85.9 µM
- TGI (MCF7 breast): > 100 µM
- TGI (HOP-62 NSCLC): > 100 µM
- TGI (NCI-H522 lung): > 61.6 µM
- TGI (SNB-19 CNS): > 100 µM
- TGI (UACC-257 melanoma): > 100 µM
- TGI (CAKI-1 renal): > 82.4 µM
- TGI (SW-620 colon): > 100 µM
- TGI (SK-MEL-28 melanoma): > 100 µM
- TGI (UO-31 renal): 88.3 µM
- TGI (BT-549 breast): > 84.3 µM
- TGI (HOP-92 NSCLC): > 100 µM
- TGI (NCI-H23 lung): > 80.8 µM
- TGI (SF-295 CNS): > 85.3 µM
- TGI (MDA-N): > 83.6 µM
- TGI (SK-MEL-5 melanoma): > 66.8 µM
- TGI (A498 renal): > 94.5 µM
- TGI (UACC-62 melanoma): > 74.3 µM
- TGI (HS 578T breast): > 100 µM
- TGI (ACHN renal): > 95.1 µM
- TGI (CCRF-CEM leukemia): > 100 µM
- TGI (LOX IMVI melanoma): > 78.5 µM
- TGI (SNB-75 CNS): > 88.8 µM
- TGI (MOLT-4 leukemia): 82.2 µM
- TGI (PC-3 prostate): > 88.8 µM
- TGI (RXF 393 renal): 98.7 µM
- TGI (OVCAR-4 ovarian): > 84.1 µM
- TGI (HL-60(TB) leukemia): > 90.3 µM
- TGI (DU-145 prostate): > 100 µM
- TGI (HCC-2998 colon): > 93 µM
- TGI (EKVX NSCLC): > 95.3 µM
- TGI (NCI-H460 lung): > 71.7 µM
- TGI (RPMI-8226 leukemia): > 100 µM
- TGI (HCT-15 colon): > 89.3 µM
- TGI (SR leukemia): > 89.8 µM
- TGI (OVCAR-8 ovarian): > 89.3 µM
- TGI (K-562 leukemia): > 86 µM
- TGI (MDA-MB-231 breast): > 88.2 µM
- TGI (TK-10 renal): > 100 µM
- TGI (OVCAR-5 ovarian): 70.6 µM
- TGI (MDA-MB-435): > 79.8 µM
- TGI (KM12 colon): > 81.2 µM

SMILES: COC(=O)C1c2c(c3ccccc3n2C(=O)OC)CCN2CCC1C(S(=O)(=O)c1ccccc1)C2=O (stereo not given)
- TGI (A549 NSCLC): > 100 µM
- TGI (U251 CNS): > 100 µM
- TGI (SK-OV-3 ovarian): > 100 µM
- TGI (IGROV1 ovarian): > 100 µM
- TGI (OVCAR-3 ovarian): > 100 µM
- TGI (SF-539 CNS): > 100 µM
- TGI (SK-MEL-2 melanoma): > 100 µM
- TGI (COLO 205 colon): > 100 µM
- TGI (NCI/ADR-RES ovarian): > 100 µM
- TGI (SF-268 CNS): > 100 µM
- TGI (HT29 colon): > 100 µM
- TGI (HCT-116 colon): > 100 µM
- TGI (SN12C renal): > 100 µM
- TGI (M14 melanoma): > 100 µM
- TGI (786-0 renal): > 100 µM
- TGI (MALME-3M melanoma): > 100 µM
- TGI (NCI-H226 lung): > 100 µM
- TGI (T-47D breast): > 100 µM
- TGI (MCF7 breast): > 100 µM
- TGI (HOP-62 NSCLC): > 100 µM
- TGI (NCI-H522 lung): > 100 µM
- TGI (SNB-19 CNS): > 100 µM
- TGI (UACC-257 melanoma): > 100 µM
- TGI (CAKI-1 renal): > 100 µM
- TGI (SW-620 colon): > 100 µM
- TGI (SK-MEL-28 melanoma): > 100 µM
- TGI (UO-31 renal): > 100 µM
- TGI (BT-549 breast): > 100 µM
- TGI (HOP-92 NSCLC): > 100 µM
- TGI (NCI-H23 lung): > 100 µM
- TGI (SF-295 CNS): > 100 µM
- TGI (MDA-N): > 100 µM
- TGI (SK-MEL-5 melanoma): > 100 µM
- TGI (A498 renal): > 100 µM
- TGI (UACC-62 melanoma): > 100 µM
- TGI (HS 578T breast): > 100 µM
- TGI (CCRF-CEM leukemia): > 100 µM
- TGI (LOX IMVI melanoma): > 100 µM
- TGI (SNB-75 CNS): > 100 µM
- TGI (MOLT-4 leukemia): > 100 µM
- TGI (PC-3 prostate): > 100 µM
- TGI (RXF 393 renal): > 100 µM
- TGI (HL-60(TB) leukemia): > 100 µM
- TGI (DU-145 prostate): > 100 µM
- TGI (EKVX NSCLC): > 100 µM
- TGI (NCI-H460 lung): > 100 µM
- TGI (RPMI-8226 leukemia): > 100 µM
- TGI (HCT-15 colon): > 100 µM
- TGI (SR leukemia): > 100 µM
- TGI (OVCAR-8 ovarian): > 100 µM
- TGI (K-562 leukemia): > 100 µM
- TGI (MDA-MB-231 breast): > 100 µM
- TGI (TK-10 renal): > 100 µM
- TGI (OVCAR-5 ovarian): > 100 µM
- TGI (MDA-MB-435): > 100 µM
- TGI (KM12 colon): > 100 µM

— PubChem BioAssay (NCI)
